The source of these data is ChEMBL document CHEMBL1201862, “PubChem BioAssay data set” (2004).

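Five compound concentrations were applied to cells in 96-well plates for 48 hours; endpoints were derived by simple linear interpolation of the resulting dose-response curve. At the GI50, growth is halved.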 The source made the active and inactive calls. Rule as the data show it: active = GI50 up to about 1.1 µM and inactive = higher.

Assay in all cases: NCI tumour cell line growth inhibition, 48 h
For assay [1], the system named is A549.
Assay [2] concerns IGROV-1.
Assay [3] relates to SW-620.
Assay [4] relates to SK-MEL-28.
Assay [5] concerns OVCAR-8.
For assay [6], the system named is M14.
The test system of assay [7] is ACHN.
Assay [8] relates to HCC 2998.
Assay [9] concerns NCI-H23.
Assay [10] deals with RPMI-8226.
Assay [11] relates to SR.
The test system of assay [12] is NCI-H522.
The test system of assay [13] is UACC-62.
In assay [14] the test system is OVCAR-5.
Assay [15] deals with NCI-H460.
Assay [16] relates to MOLT-4.
Assay [17] concerns HCT-15.
Assay [18] deals with Malme-3M.
The test system of assay [19] is SK-MEL-2.

For `CC(=O)ON(C(C)=O)C1C(COC(c2ccccc2)(c2ccccc2)c2ccccc2)OC2OC3(CCCC3)OC21` (stereo unspecified), the GI50 was 4.59 µM (inactive) in assay [1]; > 100 µM (inactive) in assay [2]; 8.63 µM (inactive) in [3]; > 100 µM (inactive) in assay [4]; 5.13 µM (inactive) in assay [5]; 7.18 µM (inactive) in assay [6]. Moreover, the GI50 in assay [7] is 7.66 µM (inactive); in assay [8], > 50.4 µM (inactive); in [9] it was 4.24 µM (inactive); in assay [10], 2.42 µM (inactive); in [11], 3.2 µM (inactive); in assay [12], 2.46 µM (inactive). Also, the GI50 was > 42 µM (inactive) in assay [13]; > 100 µM (inactive) in [14]; 6.75 µM (inactive) in assay [15]; 3.15 µM (inactive) in assay [16]; 4.6 µM in [17]; > 89.7 µM (inactive) in [18]. Also, the GI50 in [19] was 27.2 µM (inactive).
Consider `CN(C)CN(C)c1nc(N(C)C)nc(N(C)C)n1`, for which the GI50 in [1], in [2], in assay [3], in assay [4], in assay [5] and in [6] was > 100 µM (inactive) throughout. Moreover, the GI50 in assay [7], in assay [8], in [9], in assay [10], in assay [11] and in [12] was > 100 µM (inactive) each time. Also, the GI50 in [13] was > 100 µM (inactive); in [14], > 100 µM (inactive); in [15], > 100 µM (inactive); in assay [16], > 100 µM (inactive); in assay [17] it was greater than 100 µM; in assay [18] it was > 100 µM (inactive). Also, the GI50 in assay [19] was > 100 µM (inactive).
With `O=C(O)c1ccccc1Cc1ccco1`, the GI50 in [1], in assay [2], in assay [3], in assay [5], in assay [6] and in assay [7] was > 100 µM (inactive) each time. Further, the GI50 in assay [8], in assay [9], in assay [10], in assay [11], in assay [12] and in assay [13] was > 100 µM (inactive) throughout. Moreover, the GI50 in assay [14] was > 100 µM (inactive); in assay [15], > 100 µM (inactive); in assay [16], > 100 µM (inactive); in [17], greater than 100 µM; in [18], > 100 µM (inactive); in assay [19] it was > 100 µM (inactive).
Consider `CC(=O)NC(CCCNC(=O)NCCCl)C(=O)NCc1ccccc1` (stereo unspecified), for which the GI50 in assay [1], in assay [3], in assay [4], in assay [5], in assay [6] and in assay [7] was > 100 µM (inactive) each time. The GI50 in assay [8], in [9], in assay [10], in assay [11], in assay [12] and in [13] was > 100 µM (inactive) each time. Also, the GI50 is > 100 µM (inactive) in assay [15]; > 100 µM (inactive) in assay [16]; greater than 100 µM in assay [17]; > 100 µM (inactive) in assay [18]; > 100 µM (inactive) in assay [19].
In the case of `C/C(=N/N)c1sc(-c2nc(C)c(/C(C)=N\N)s2)nc1C`, the GI50 in assay [1] is > 100 µM (inactive); in [2], > 100 µM (inactive); in [3], > 100 µM (inactive); in assay [4], > 100 µM (inactive); in assay [5], > 86.1 µM (inactive); in [6] it was > 95.3 µM (inactive). For the same compound, the GI50 in assay [7] is > 100 µM (inactive); in assay [8], > 100 µM (inactive); in [9] it was > 100 µM (inactive); in [10], 35.7 µM (inactive); in [11] it was 16.4 µM (inactive); in assay [12], > 53.6 µM (inactive). Further, the GI50 in assay [13] is > 92.7 µM (inactive); in [14], > 100 µM (inactive); in [15] it was 59.3 µM (inactive); in assay [16], 24.5 µM (inactive); in [17], greater than 43 µM; in assay [18], > 100 µM (inactive). In addition, the GI50 in assay [19] was > 100 µM (inactive).
With `O=C1C=C(Nc2ccccc2C(=O)CC(=O)C(=O)Nc2ccc(Cl)cc2)c2ccccc2C1=O`, the GI50 in [1] was 14.4 µM (inactive); in [2], 27.4 µM (inactive); in assay [3] it was 7.11 µM (inactive); in assay [4], 16.7 µM (inactive); in [5], 6.59 µM (inactive); in assay [6], 10.9 µM (inactive). Besides, the GI50 was 18.2 µM (inactive) in assay [7]; 17.5 µM (inactive) in assay [8]; 9.91 µM (inactive) in [9]; 3.21 µM (inactive) in assay [10]; > 100 µM (inactive) in assay [11]; 7.85 µM (inactive) in assay [12]. For the same compound, the GI50 was 13.3 µM (inactive) in [13]; 19.6 µM (inactive) in assay [14]; 16.3 µM (inactive) in assay [15]; 5.05 µM (inactive) in assay [16]; 10.6 µM in assay [17]; 11.8 µM (inactive) in assay [18]. Besides, the GI50 in assay [19] is 17.2 µM (inactive).
Consider `O=C(NC1CCCCC1)N1CCNC1=S`, for which the GI50 in [1], in assay [2], in assay [3], in assay [4], in assay [5] and in assay [6] was > 100 µM (inactive) throughout. Moreover, the GI50 in [7] was > 100 µM (inactive); in assay [8] it was > 100 µM (inactive); in assay [9] it was > 100 µM (inactive); in assay [10] it was 65.6 µM (inactive); in assay [11], > 100 µM (inactive); in assay [12] it was > 100 µM (inactive). Moreover, the GI50 in assay [14] was > 100 µM (inactive); in assay [15], > 100 µM (inactive); in [16], > 100 µM (inactive); in assay [17], greater than 100 µM; in assay [18], > 100 µM (inactive); in [19] it was 2.94 µM (inactive).
In the case of `N#Cc1ccc(Sc2ccccc2)cc1C#N`, the GI50 in assay [1] was > 100 µM (inactive); in [2], > 100 µM (inactive); in [4], > 100 µM (inactive); in [5] it was 31 µM (inactive); in assay [6], > 100 µM (inactive); in assay [7], > 100 µM (inactive). Also, the GI50 is > 100 µM (inactive) in assay [8]; 50.5 µM (inactive) in assay [9]; 28.1 µM (inactive) in [10]; 18.7 µM (inactive) in [11]; 31.7 µM (inactive) in [12]; > 100 µM (inactive) in [13]. The GI50 in [14] is > 100 µM (inactive); in [15], 22.2 µM (inactive); in assay [16], > 100 µM (inactive); in assay [17] it was 16 µM; in assay [18], > 100 µM (inactive); in assay [19] it was > 100 µM (inactive).
`OC(c1ccccc1)(c1ccccc1)c1ccncc1`: the GI50 in assay [1], in [2], in [3], in assay [4], in assay [5] and in [6] was > 100 µM (inactive) throughout. In addition, the GI50 in assay [7], in [8], in [9], in [10], in assay [11] and in [12] was > 100 µM (inactive) each time. Besides, the GI50 in [13] is > 100 µM (inactive); in assay [14], > 100 µM (inactive); in assay [15], > 100 µM (inactive); in [16], > 100 µM (inactive); in assay [17], greater than 100 µM; in assay [18], > 100 µM (inactive). In addition, in assay [19], the GI50 was > 100 µM (inactive).
As for `C1=CC=C2NCCCCCC/N=C3\C=CC=CC=C3NCCc3cccc(c3)CC/N=C/2C=C1`, the GI50 in assay [1] was 35.2 µM (inactive); in assay [2] it was 16.9 µM (inactive); in assay [3], 4.67 µM (inactive); in [5], 14.8 µM (inactive); in assay [6] it was 11 µM (inactive); in assay [7] it was 33 µM (inactive). Further, the GI50 is 10 µM (inactive) in assay [8]; 13.1 µM (inactive) in assay [9]; 7.45 µM (inactive) in assay [10]; 9.82 µM (inactive) in assay [11]; 16.9 µM (inactive) in assay [12]; 21.7 µM (inactive) in assay [13]. For the same compound, the GI50 in [14] is 14.4 µM (inactive); in assay [15], 5.42 µM (inactive); in [16], 7.78 µM (inactive); in [17], 15.8 µM; in assay [18], 35.3 µM (inactive); in [19] it was 26.9 µM (inactive).
For `CN(c1ccccc1)C1C(=O)N(c2ccccc2)C1/C=C/c1ccccc1` (stereo unspecified), the GI50 in [1], in assay [2], in [3], in [4], in assay [5] and in assay [7] was > 100 µM (inactive) each time. In addition, the GI50 in [8] was > 100 µM (inactive); in assay [9], > 100 µM (inactive); in [10], > 100 µM (inactive); in [11] it was > 100 µM (inactive); in [12] it was > 100 µM (inactive); in assay [13], 72.6 µM (inactive). The GI50 in assay [14], in assay [15], in assay [16], in assay [18] and in assay [19] was > 100 µM (inactive) in each case.
